The conditions of series [1]: reference [12]; cited from earlier work.
The test system of a further series is 3T3-L1 cells. Description: MTT cell viability / proliferation assay. The format is cell-based, Mouse. On the procedure: The cell viability was evaluated using the MTT assay. 3T3-L1 cells were seeded at a density of 1×10^3 in 96-well plates and incubated for 24h. Compounds 1 and 2 were added in the wells at various concentrations and then incubated at 37 °C. Cells were treated with compound 1 at concentrations of 62.5, 46.875, 31.25, 15.625, 7.81 and 3.9 µM. Cells were treated with compound 2 at concentrations of 62.5, 25.0, 12.5, 6.25 and 3.125 µM. After 24, 48, and 72 h of treatment, MTT solution was added in the wells at a final concentration of 0.5 mg/mL and incubated for 4 h. Cell culture media with MTT was removed and the formazan crystals were dissolved in 100 µl/well isopropanol/HCl (0.4%) and the absorbance was measured at 600 nm using the Infinite® 200 PRO microplate plate reader (Tecan, Zurich, Switzerland).

The test system of series [2] is cytochrome P450 genes (Cyp1a1, Cyp2b10, Cyp3a11, Cyp3a25). Description: Quantitative PCR of cytochrome P450 genes in liver RNA extracts. As to conditions: 0.25 mg/mouse i.p. every 48 h for 35 days; vs high-fat diet mice. Type of series: in vivo, C57BL/6 adult male mice. On the procedure: Adipocytes and preadipocytes were harvested using the TRI Reagent®. RNA isolation was carried out according to the manufacturer's instructions. The purified RNA was quantified using the Nanodrop micro-volume spectrophotometer and 500 ng of each sample were used as a template for reverse transcription. cDNA synthesis was performed using the PrimeScriptTM RT reagent Kit (TaKaRa, RR037A) according to manufacturer's instructions. The cDNA produced by the above described procedure was diluted and used as a template for two-step quantitative PCR in a StepOnePlus™ Real-Time PCR System (Applied Biosystems™, 4376600) for a maximum of 40 cycles, as follows: start step 95 °C for 3 min, repeat steps: 95 °C for 15 s and 60 °C for 30 s. Amplification was performed using KAPA SYBR® FAST Universal qPCR kit (Kapa Biosystems, KK4618) according to manufacturer's instructions. Relative quantitative analysis was accomplished calculating fold-changes of gene expression as 2-(ΔΔCt), where ΔCt is (Ct (gene of interest) - Ct (housekeeping gene)). Ppib was used as internal control gene in 3T3L1 cells and in the fat fraction of mice abdominal fat, Rps9 was used as internal control gene in the stromal vascular fraction of mice abdominal fat and Actb was used as internal control gene in liver samples. Table 1. List of primers used for quantitative real-time PCR analysis.
(§1) All procedures were conducted in compliance with protocols approved by the Animal Care Committee of the University of Crete, School of Medicine (Facility number EL91-BIOexp-06), in conjunction with the Veterinary Department of the Region of Crete, Heraklion, Crete, Greece. C57BL/6 adult male mice were maintained in a 12 h day/night cycle and 21-23 °C conditions. Mice were provided with water and either normal fat diet, or high fat diet (60% energy from fat) ad libitum. All mice were weighed every 48 h.
(§2) Neorogioldiol was first dissolved in 90% carbowaxTM 400, 10% (v/v) absolute ethanol solution and then diluted 1:10 in water for injection. A dose of 0.25 mg neorogioldiol in a total volume of 200 µl was administered intraperitoneally every 48 h in mice in high fat + neorogioldiol group starting from day 1. 4-5 mice were used per group and each experiment was performed twice.

Series [3] is described as follows: Glucose tolerance test in high fat diet-fed mice. The format is in vivo, C57BL/6 adult male mice. On the procedure: as §1, §2
Mice were fasted for 16 h before receiving an intraperitoneal injection of 35% dextrose (100 µl / 35 gr). Blood glucose concentrations were measured in blood collected by venous bleeding from the tail vein immediately before the injections and after 30, 60 and 120 min.

For the substance neorogioldiol, the anti-inflammatory activity result in series [1] is reported as “potent anti-inflammatory activity”. Also, the “concentrations that did not exhibit cytotoxicity” value with 3T3-L1 cells (concentration chosen for further analyses) came to 62.5 µM. Moreover, the “concentration with cytostatic effects” value in the series on 3T3-L1 cells (three-day incubation (24, 48, 72 h), compound 1: after the first 24 h of treatment) came out at 62.5 µM. Also, in series [2], the “Cyp1a1 expression in liver RNA extracts” value is listed as “no difference”, the “Cyp2b10 expression in liver RNA extracts” value is given as “no difference”, the “Cyp3a11 expression in liver RNA extracts” value is “no difference” and the “Cyp3a25 expression in liver RNA extracts” value is reported as “no difference”. Moreover, the “glucose intolerance (glucose tolerance test)” value in series [3] (day 16, 0.25 mg/mouse i.p. every 48 h) is “had not developed glucose intolerance”. In addition, the “glucose intolerance (glucose tolerance test)” value in series [3] (day 34, 0.25 mg/mouse i.p. every 48 h) is “became glucose intolerant”.
